Measured values published in patent US20250151724A1, “Liquid Soil Treatments Containing Choline” (Harrell's, LLC, priority 2023, published 2025).

System: creeping bentgrass
Test: Experiment No. 1: growth chamber pot trial, foliar GB and choline under heat and mild drought stress
Format: in vivo
Conditions: for Root Viability: TTC method
Description: A growth chamber pot trial was conducted as follows. […] The choline used in this study was supplied in the form of choline chloride from Sigma-Aldrich, Inc. (St. Louis, MO). […] These conditions simulated summer putting green stress. The treatments were as follows: • 1. […] GB at 0.5 oz./1,000 ft^2 every 14 days. • 3. GB at 1.0 oz./1,000 ft^2 every 14 days. • 4. […] The rate and source of fertilization for treatments #2-7 was the same as treatment #1 (fertilized control), so all seven treatments received identical fertility input. […] The term “low rate” is used in this description of Experiment No. 1 to refer to 0.5 oz./1,000 ft^2 treatments, while the term “high rate” is used to refer to 1.0 oz./1,000 ft^2 treatments. […] Photochemical efficiency (PE). Photochemical Efficiency was measured with a chlorophyll fluorometer (OS-50II, Opti-Sciences, Inc., Hudson, NH) biweekly based on the Fv/Fm, which is the ratio of variable chlorophyll fluorescence (Fv) to maximum chlorophyll fluorescence (Fm). […] Chlorophyll content. After clipping yields were weighed, leaf tissues were ground into powder, and chlorophyll was extracted in pure acetone content for 72 hours, and the absorbance was measured using a spectrophotometer. • e. Leaf carotenoids were extracted in the same sample as for chlorophyll content and carotenoids were measured using a spectrophotometer (Zhang et al., 2005). • f. Leaf proline content. […] After centrifuging, the supernatant was collected, and proline was analyzed according to Wu et al., 2017. • g. Root viability. […] Root growth characteristics. At the end of trial, roots from each pot were washed and cleaned. Roots were scanned using WinRHIZOTM technology (Regent Instruments Inc., Quebec, Canada), and root length, root surface area, root diameter, and root volume were calculated. (Zhang et al., 2017). • i. Root biomass of each pot was determined at the end of the trial. Roots were dried at 65° C. for 72 hours before being weighed.

`C[N+](C)(C)CC(=O)[O-]` [GB, Glycine betaine, reference compound] showed a Clippings dry wt (0.5 oz/1000 ft^2, Total) of 0.686bc g/pot, a Carotenoids (0.5 oz/1000 ft^2, day 0) of 1.31a mg/g FW and a Chlorophyll (0.5 oz/1000 ft^2, day 0) of 3.43a mg/g FW. For the same compound, the “Leaf color (1-9, 9 = dark green)” value (0.5 oz/1000 ft^2, day 0) was 7.5a, the “PE (Fv/Fm)” value (0.5 oz/1000 ft^2, day 0) was 0.777a and the Proline (0.5 oz/1000 ft^2, day 0) was 19.0a mg/g FW. For the same compound, the Carotenoids (0.5 oz/1000 ft^2, day 14) was 1.31a mg/g FW, the Chlorophyll (0.5 oz/1000 ft^2, day 14) was 3.44a mg/g FW and the Clippings dry wt (0.5 oz/1000 ft^2, day 14) was 0.159ab g/pot. For the same compound, the “Leaf color (1-9, 9 = dark green)” value (0.5 oz/1000 ft^2, day 14) was 7.1bc, the “PE (Fv/Fm)” value (0.5 oz/1000 ft^2, day 14) was 0.744ab and the Proline (0.5 oz/1000 ft^2, day 14) was 21.2bc mg/g FW. It also gave a Carotenoids (0.5 oz/1000 ft^2, day 28) of 1.00ab mg/g FW, a Chlorophyll (0.5 oz/1000 ft^2, day 28) of 2.89abc mg/g FW and a Clippings dry wt (0.5 oz/1000 ft^2, day 28) of 0.143b g/pot. For the same compound, the “Leaf color (1-9, 9 = dark green)” value (0.5 oz/1000 ft^2, day 28) was 6.3b, the “PE (Fv/Fm)” value (0.5 oz/1000 ft^2, day 28) was 0.676ab and the Proline (0.5 oz/1000 ft^2, day 28) was 35.1a mg/g FW. The Carotenoids (0.5 oz/1000 ft^2, day 42) was 1.13a mg/g FW, the Chlorophyll (0.5 oz/1000 ft^2, day 42) was 2.80ab mg/g FW and the Clippings dry wt (0.5 oz/1000 ft^2, day 42) was 0.152a g/pot. For the same compound, the “Leaf color (1-9, 9 = dark green)” value (0.5 oz/1000 ft^2, day 42) was 6.9ab, the “PE (Fv/Fm)” value (0.5 oz/1000 ft^2, day 42) was 0.668ab and the Proline (0.5 oz/1000 ft^2, day 42) was 34.9bc mg/g FW. It also gave a Carotenoids (0.5 oz/1000 ft^2, day 56) of 1.08ab mg/g FW, a Chlorophyll (0.5 oz/1000 ft^2, day 56) of 2.63abc mg/g FW and a Clippings dry wt (0.5 oz/1000 ft^2, day 56) of 0.233ab g/pot. For the same compound, the “Leaf color (1-9, 9 = dark green)” value (0.5 oz/1000 ft^2, day 56) was 6.3bc, the “PE (Fv/Fm)” value (0.5 oz/1000 ft^2, day 56) was 0.646ab and the Proline (0.5 oz/1000 ft^2, day 56) was 62.9ab mg/g FW. For the same compound, the “Root Biomass” value (0.5 oz/1000 ft^2, end of trial) was 1.34b g/pot, the “Root Diameter” value (0.5 oz/1000 ft^2, end of trial) was 0.189ab mm and the “Root Length” value (0.5 oz/1000 ft^2, end of trial) was 33.1b mm/cm^3. The “Root Volume” value (0.5 oz/1000 ft^2, end of trial) was 9.6a dm^3/cm^3, the “Root Viability” value (0.5 oz/1000 ft^2, end of trial) was 0.877abcd A490/g FW and the Clippings dry wt (1.0 oz/1000 ft^2, Total) was 0.876a g/pot. The Carotenoids (1.0 oz/1000 ft^2, day 0) was 1.30a mg/g FW, the Chlorophyll (1.0 oz/1000 ft^2, day 0) was 3.42a mg/g FW and the “Leaf color (1-9, 9 = dark green)” value (1.0 oz/1000 ft^2, day 0) was 7.5a. The “PE (Fv/Fm)” value (1.0 oz/1000 ft^2, day 0) was 0.743a, the Proline (1.0 oz/1000 ft^2, day 0) was 18.6a mg/g FW and the Carotenoids (1.0 oz/1000 ft^2, day 14) was 1.31a mg/g FW. For the same compound, the Chlorophyll (1.0 oz/1000 ft^2, day 14) was 3.43a mg/g FW, the Clippings dry wt (1.0 oz/1000 ft^2, day 14) was 0.211a g/pot and the “Leaf color (1-9, 9 = dark green)” value (1.0 oz/1000 ft^2, day 14) was 7.3abc. The “PE (Fv/Fm)” value (1.0 oz/1000 ft^2, day 14) was 0.765a, the Proline (1.0 oz/1000 ft^2, day 14) was 21.6bc mg/g FW and the Carotenoids (1.0 oz/1000 ft^2, day 28) was 1.02b mg/g FW. The Chlorophyll (1.0 oz/1000 ft^2, day 28) was 2.71bc mg/g FW, the Clippings dry wt (1.0 oz/1000 ft^2, day 28) was 0.225a g/pot and the “Leaf color (1-9, 9 = dark green)” value (1.0 oz/1000 ft^2, day 28) was 7.0a. For the same compound, the “PE (Fv/Fm)” value (1.0 oz/1000 ft^2, day 28) was 0.715ab, the Proline (1.0 oz/1000 ft^2, day 28) was 25.8b mg/g FW and the Carotenoids (1.0 oz/1000 ft^2, day 42) was 0.99ab mg/g FW. For the same compound, the Chlorophyll (1.0 oz/1000 ft^2, day 42) was 2.47ab mg/g FW, the Clippings dry wt (1.0 oz/1000 ft^2, day 42) was 0.189a g/pot and the “Leaf color (1-9, 9 = dark green)” value (1.0 oz/1000 ft^2, day 42) was 6.5b. For the same compound, the “PE (Fv/Fm)” value (1.0 oz/1000 ft^2, day 42) was 0.673ab, the Proline (1.0 oz/1000 ft^2, day 42) was 38.9abc mg/g FW and the Carotenoids (1.0 oz/1000 ft^2, day 56) was 0.96ab mg/g FW. For the same compound, the Chlorophyll (1.0 oz/1000 ft^2, day 56) was 2.55bc mg/g FW, the Clippings dry wt (1.0 oz/1000 ft^2, day 56) was 0.252a g/pot and the “Leaf color (1-9, 9 = dark green)” value (1.0 oz/1000 ft^2, day 56) was 6.4abc. The “PE (Fv/Fm)” value (1.0 oz/1000 ft^2, day 56) was 0.651a, the Proline (1.0 oz/1000 ft^2, day 56) was 68.5a mg/g FW and the “Root Biomass” value (1 oz/1000 ft^2, end of trial) was 1.64ab g/pot. The “Root Diameter” value (1 oz/1000 ft^2, end of trial) was 0.174b mm, the “Root Length” value (1 oz/1000 ft^2, end of trial) was 40.3ab mm/cm^3 and the “Root Volume” value (1 oz/1000 ft^2, end of trial) was 9.7a dm^3/cm^3. The “Root Viability” value (1 oz/1000 ft^2, end of trial) was 1.076ab A490/g FW.
